Reference: patent US11716992B2, “5A5B6C tricyclic spirolactone derivative, preparation method therefor and use thereof” (NANKAI UNIVERSITY, priority 2017, dated 2023)
Values joined by “and” are separate entries in the source; they are usually repeats but may differ in a detail not shown here. Equal values may be shown once. Read-outs that look alike come from different tables or passages of the source.

Assays:
Caenorhabditis elegans = test: Insecticidal activity against Caenorhabditis elegans; type: in vivo; settings: for pest or weed control at 100 µg/mL: Caenorhabditis elegans, read-out: insecticidal activity, Caenorhabditis elegans
Pellicularia sasakii = test: Fungicidal activity, fungicide growth rate method, PS; type: cell-based; settings: 50 μg/mL; for inhibition at 50 µg/mL: read-out: fungicidal activity (growth inhibition rate), PS
Alternaria solani = test: Fungicidal activity, fungicide growth rate method, AS; type: cell-based; settings: 50 μg/mL; for inhibition at 50 µg/mL: Alternaria solani, read-out: fungicidal activity (growth inhibition rate), AS
Botrytis cinerea = test: Fungicidal activity, fungicide growth rate method, BC; type: cell-based; settings: 50 μg/mL; for inhibition at 50 µg/mL: Botrytis cinerea, read-out: fungicidal activity (growth inhibition rate), BC
Tobacco Mosaic Virus = test: Anti-TMV inactivation activity on tobacco plants; type: in vivo; parameters: concentration or dose not given beside the values; settings: compound mixed with TMV solution 30 minutes, lesions checked three days later
Ostrinia furnacalis = test: Insecticidal activity against Ostrinia furnacalis; type: in vivo; settings: for pest or weed control at 100 µg/mL: Ostrinia furnacalis, read-out: insecticidal activity, Ostrinia furnacalis
Cercospora arachidicola = test: Fungicidal activity, fungicide growth rate method, CA; type: cell-based; settings: 50 μg/mL; for inhibition at 50 µg/mL: Mycosphaerella arachidis, read-out: fungicidal activity (growth inhibition rate), CA
[1] = tested on: Phytophthora infestans (Mont.) de Bary; test: microbe, parasite or virus in culture; type: cell-based; settings: for inhibition at 50 µg/mL: Phytophthora infestans, read-out: fungicidal activity (growth inhibition rate), PI, 50 μg/mL
[2] = tested on: Helicoverpa armigera (Hübner); test: Insecticidal activity against Helicoverpa armigera (Hübner); type: in vivo; settings: for pest or weed control at 100 µg/mL: Helicoverpa armigera, read-out: insecticidal activity, Helicoverpa armigera (Hübner)
Rhizoctonia cerealis = test: Fungicidal activity, fungicide growth rate method, RC; type: cell-based; settings: 50 μg/mL; for inhibition at 50 µg/mL: Ceratobasidium cereale, read-out: fungicidal activity (growth inhibition rate), RC
wheat Gibberella zeae = test: microbe, parasite or virus in culture; type: cell-based; settings: for inhibition at 50 µg/mL: Fusarium graminearum, read-out: fungicidal activity (growth inhibition rate), GZ, 50 μg/mL; for fungicidal activity (growth inhibition rate), GZ: 50 μg/mL
Sclerotinia sclerotiorum = test: Fungicidal activity, fungicide growth rate method, SS; type: cell-based; settings: 50 μg/mL; for inhibition at 50 µg/mL: Sclerotinia sclerotiorum
[3] = tested on: Mythimna separate (Walker); test: Insecticidal activity against Mythimna separate (Walker); type: in vivo; settings: for pest or weed control at 100 µg/mL: Mythimna, read-out: insecticidal activity, Mythimna separate (Walker)
Physalospora piricola = test: Fungicidal activity, fungicide growth rate method, PP; type: cell-based; settings: 50 μg/mL; for inhibition at 50 µg/mL: read-out: fungicidal activity (growth inhibition rate), PP
[4] = tested on: Apis mellifera ligustica Spin; settings: for Death number after 24 h / Death number after 48 h: per replicate of 10 bees

SMILES	pest or weed control at 100 µg/mL (Caenorhabditis elegans; 100 μg/mL) [%]	inhibition at 50 µg/mL (Pellicularia sasakii) [%]	inhibition at 50 µg/mL (Alternaria solani) [%]	inhibition at 50 µg/mL (Botrytis cinerea) [%]	TMV inactivation (anti-TMV activity) (Tobacco Mosaic Virus) [%]	pest or weed control at 100 µg/mL (Ostrinia furnacalis; 100 μg/mL) [%]	inhibition at 50 µg/mL (Cercospora arachidicola) [%]	inhibition at 50 µg/mL [1] [%]	pest or weed control at 100 µg/mL ([2]; 100 μg/mL) [%]	inhibition at 50 µg/mL (Rhizoctonia cerealis) [%]	inhibition at 50 µg/mL (wheat Gibberella zeae) [%]	inhibition at 50 µg/mL (Sclerotinia sclerotiorum) [%]	pest or weed control at 100 µg/mL ([3]; 100 μg/mL) [%]	inhibition at 50 µg/mL (Physalospora piricola) [%]	also measured
CO[C@@H]1CC(=O)[C@@]2(O)CC=CC[C@H]12 [Zyj06-111-2]	> 30	0	14	39	24	40	> 50	31	50	0	47	10			
CCOC(=O)C(C(=O)OCC)C1CC(=O)[C@@]2(O)CC=CC[C@H]12 (stereo partly drawn) [Zyj06-113-2]	7	25	3	> 50	28	15	24	40	5	0	0	36	20	26	Death rate after 48 h (%) ([4]; dosage 9.69 μg a.i./bee): 10.0%; Death number after 24 h ([4]; dosage 9.69 μg a.i./bee): 0; Death number after 48 h ([4]; dosage 9.69 μg a.i./bee): 0 and 2; Death rate after 48 h (%) ([4]; dosage 12.6 μg a.i./bee): 15.0%; Death number after 24 h ([4]; dosage 12.6 μg a.i./bee): 0; Death number after 48 h ([4]; dosage 12.6 μg a.i./bee): 1 and 2
C=CC[C@@H]1C[C@]2(O)C(C(=O)OCC)C(=O)O[C@@]23CC=CC[C@H]13 (stereo partly drawn) [Zyj06-180]	22	45	14	> 50	5	0	30	19	5	0	20	> 50	20	15	Death rate after 48 h (%) ([4]; dosage 10.6 μg a.i./bee): 5.0%; Death number after 24 h ([4]; dosage 10.6 μg a.i./bee): 1 and 0; Death number after 48 h ([4]; dosage 10.6 μg a.i./bee): 1 and 0
C=CC[C@@H]1C[C@]2(O)C[C@H](O[C@]34CCO[C@@]35CC=CC[C@H]5[C@H](CC=C)C4)O[C@@]23CC=CC[C@H]13 [Zyj07-30-1]					8	0		21	0	0			0		insecticidal activity, Caenorhabditis elegans (Caenorhabditis elegans; 100 μg/mL): 5%; fungicidal activity (growth inhibition rate), PS (Pellicularia sasakii): 22%; fungicidal activity (growth inhibition rate), AS (Alternaria solani): 14%; fungicidal activity (growth inhibition rate), BC (Botrytis cinerea): 5%; fungicidal activity (growth inhibition rate), CA (Cercospora arachidicola): 41%; fungicidal activity (growth inhibition rate), PP (Physalospora piricola): 83%; Death rate after 48 h (%) ([4]; dosage 5.12 μg a.i./bee): 0%; Death number after 24 h ([4]; dosage 5.12 μg a.i./bee): 0; Death number after 48 h ([4]; dosage 5.12 μg a.i./bee): 0; Death rate after 48 h (%) ([4]; dosage 10.6 μg a.i./bee): 5.0%; Death number after 24 h ([4]; dosage 10.6 μg a.i./bee): 0; Death number after 48 h ([4]; dosage 10.6 μg a.i./bee): 0 and 1; fungicidal activity (growth inhibition rate), GZ (wheat Gibberella zeae): 0%; fungicidal activity (growth inhibition rate), SS (Sclerotinia sclerotiorum): 95%
C=CC[C@@H]1C[C@]2(O)C[C@H](O[C@]34CCO[C@@]35CC=CC[C@H]5[C@H](CC=C)C4)O[C@@]23CC=CC[C@H]13 [Zyj07-30-2]					16										fungicidal activity (growth inhibition rate), PS (Pellicularia sasakii): 0%; fungicidal activity (growth inhibition rate), AS (Alternaria solani): 0%; fungicidal activity (growth inhibition rate), BC (Botrytis cinerea): 34%; insecticidal activity, Mythimna separate (Walker) ([3]; 100 μg/mL): 0%; insecticidal activity, Ostrinia furnacalis (Ostrinia furnacalis; 100 μg/mL): 0%; fungicidal activity (growth inhibition rate), CA (Cercospora arachidicola): 73%; fungicidal activity (growth inhibition rate), PP (Physalospora piricola): 48%; fungicidal activity (growth inhibition rate), PI ([1]; 50 μg/mL): 14%; insecticidal activity, Helicoverpa armigera (Hübner) ([2]; 100 μg/mL): 0%; fungicidal activity (growth inhibition rate), RC (Rhizoctonia cerealis): 0%; fungicidal activity (growth inhibition rate), GZ (wheat Gibberella zeae): 27%; fungicidal activity (growth inhibition rate), SS (Sclerotinia sclerotiorum): 95%
C=CC[C@@H]1C[C@]2(O)CCO[C@@]23C[C@@H]2O[C@@H]2C[C@H]13 [Zyj07-31-1]	18	0	14	36	11	0	41	15	0	7	7	0	0	> 50	
C=CC[C@@H]1C[C@]2(O)CCO[C@@]23CC[C@H](O)C[C@H]13 [Zyj07-33]	27	27	24	> 50	9	10	46	16	15	41	27	31	> 30	> 50	
C=CC[C@@H]1C[C@]2(OC(C)=O)C[C@@H](OC(C)=O)O[C@@]23CC=CC[C@H]13 [Zyj07-37-1]	20	0	14		16	10	14	15	15	7	0	> 50	20	> 50	Death rate after 48 h (%) ([4]; dosage 7.55 μg a.i./bee): 0%; Death number after 24 h ([4]; dosage 7.55 μg a.i./bee): 0; Death number after 48 h ([4]; dosage 7.55 μg a.i./bee): 0; Death rate after 48 h (%) ([4]; dosage 15.3 μg a.i./bee): 0%; Death number after 24 h ([4]; dosage 15.3 μg a.i./bee): 0; Death number after 48 h ([4]; dosage 15.3 μg a.i./bee): 0
C=CC[C@@H]1C[C@]2(OC(C)=O)C[C@H](OC(C)=O)O[C@@]23CC=CC[C@H]13 [Zyj07-37-2]	13	18	22	18	28	0	27	21	15	21	3	> 50	20	31	
C=CC[Si](C)(C)O[C@@]12CCO[C@@]13CC[C@H]1C[C@H]3[C@H](CC=CC[Si](C)(C)O1)C2 [Zyj07-49]		45		34	28			16				> 50			pest or weed control at 100 µg/mL (Caenorhabditis elegans): 15%; pest or weed control at 100 µg/mL [3]: 20%; pest or weed control at 100 µg/mL (Ostrinia furnacalis): 0%; Death rate after 48 h (%) ([4]; dosage 6.06 μg a.i./bee): 0%; Death number after 24 h ([4]; dosage 6.06 μg a.i./bee): 0; Death number after 48 h ([4]; dosage 6.06 μg a.i./bee): 0; Death rate after 48 h (%) ([4]; dosage 19.8 μg a.i./bee): 0%; Death number after 24 h ([4]; dosage 19.8 μg a.i./bee): 0; Death number after 48 h ([4]; dosage 19.8 μg a.i./bee): 0; pest or weed control at 100 µg/mL [2]: 0%
O=C1C[C@@]2(O)CC[C@H]3CC=CC[C@@]32O1 [Zyj07-96]		> 60	> 60	25	23	10		24	15		> 50	> 50	> 30		Death rate after 48 h (%) ([4]; dosage 9.54 μg a.i./bee): 0%; Death number after 24 h ([4]; dosage 9.54 μg a.i./bee): 0; Death number after 48 h ([4]; dosage 9.54 μg a.i./bee): 0; Death rate after 48 h (%) ([4]; dosage 15.5 μg a.i./bee): 0%; Death number after 24 h ([4]; dosage 15.5 μg a.i./bee): 0; Death number after 48 h ([4]; dosage 15.5 μg a.i./bee): 0
